Among the data in PubChem BioAssay AID463229 (Broad Institute, 2010) are AC50 values, retold here.

Each structure is given as a SMILES string. Activity calls are given as the source filed them.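 How the source made its calls: active means compounds raising the signal whose fitted half-maximal concentration is at or below their top tested dose (cut at about 25 µM in these data); inconclusive means flat fit at 30 to 70% activity, or a poor fit; inactive means the rest.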

This assay relates to INS-1E rat beta cells, no cytokines, CellTiter-Glo ATP, 48 h. The experiment in a line: cytokine-free beta-cell viability effect – INS-1E rat cells, ATP luminescence, cherry pick, counter-screen for beta-cell apoptosis protection project, dose response (AID 463229).
On to `C/C(=N\NC(=O)c1nnn(-c2nonc2N)c1-c1ccccc1)c1ccccc1O`, for which the AC50 – broadly, the midpoint of the concentration-response curve, whichever way the signal moves – was 2.17 µM. The result for `C=CC[n+]1c(-c2ccc(OCC)cc2)csc1NNC(=O)Nc1ccccc1` reads 12.1 µM; that for `COc1ccccc1N1C(C)=CC(=C(C#N)c2nc3ccccc3s2)C=C1C`, 8.66 µM; that for `CC(=O)NC(c1cc(Cl)c2cccnc2c1O)C(C)C` (stereo not given), 8.18 µM. Regarding `CCc1ccc(-c2nn(-c3ccccc3)cc2CSC(=N)N)cc1`, the AC50 was 8.32 µM.

`CCCCC(=O)NC(c1ccccc1OC)c1ccc2cccnc2c1O` (stereo not given): the AC50 was 2.13 µM. Regarding `Cc1cc(C)c(C)c(S(=O)(=O)N2CCN(c3ncnc4ccccc34)CC2)c1C`, the AC50 was 6.34 µM.

Consider `CCCCCn1c(=O)c(C(=O)Nc2ncccc2C)c(O)c2ccccc21`, for which the AC50 is 6.75 µM.

Turning to `CC(C)Nc1ccc(Nc2ccccc2)cc1`, the AC50 is 7.5 µM. For the compound `C/C(=N\NC(=O)c1nnn(-c2nonc2N)c1CN1CCc2ccccc21)c1ccccc1O`, the AC50 was 11.4 µM. For `CCc1ccc(Nc2n[n+](-c3ccccc3)c(-c3c(Cl)cccc3Cl)s2)cc1`, the AC50 was 4.08 µM.

As to `CC(C)(C)n1ncc2c(=O)n(Cc3cccc(Cn4cnc5c(cnn5C(C)(C)C)c4=O)c3F)cnc21`, the AC50 is 4.32 µM.

`CCN(Cc1ccccc1)C(c1ccc(C(F)(F)F)cc1)c1nnnn1C(C)(C)C` (stereo not given): the half-maximal activity concentration (AC50) was 4.83 µM. As for `N#CC1=C(N)N2C(=C(C#N)C1c1ccc(Br)cc1)Nc1ccccc12` (stereo not given), the figure is 1.87 µM; as for `CCOC(=O)c1sc(NC(=O)c2c(C)nn(Cc3ccccc3)c2C)cc1C`, > 26 µM (inactive). In the case of `COc1ccc(C)cc1Nc1n[n+](-c2ccccc2)c(-c2c(OC)ccc3ccccc23)s1`, the AC50 was 6.88 µM. Take `COc1cc(CN2CCN(c3cc(C)ccc3C)CC2)ccc1O`: the AC50 was 7.21 µM. Turning to `CCCCOCCCNc1ncnc2c1[nH]c1ccccc12`, the AC50 is 2.24 µM. `Cc1ccc2cc(C3C(C#N)=C(N)Oc4c3ccc3cccnc43)c(=O)[nH]c2c1` (stereo not given): the AC50 was 5.81 µM. The result for `NC(N)=N/N=C/c1ccc(OCc2ccccc2)cc1` reads 14.7 µM. In the case of `O=C(/C=C/c1ccc(-c2ccccc2)cc1)NCc1cccnc1`, the AC50 was 9.36 µM. With `O=C(Nc1cccc(Cl)c1)Nc1nnc(-c2ccncc2)s1`, the AC50 was 6.36 µM. The result for `CC1(C)CC(N2CCN(Cc3ccccc3)CC2)=CC(=[N+]2CCCCC2)C1` reads 2.55 µM; that for `CCOC(=O)c1c(NC(=O)C[n+]2ccc(Cc3ccccc3)cc2)sc(C)c1C`, 10.9 µM; that for `Cc1cc(NC2CCCCC2)nc(NCc2ccccc2)n1`, 3.71 µM. As to `O=C(NCc1cccnc1)c1ccc(NC(=O)c2cccc([N+](=O)[O-])c2)cc1`, the AC50 is 0.205 µM.

As for `CCCCCc1ccc(OCCCC[n+]2ccccc2)c(CCCCC)c1`, the AC50 was 3.3 µM. For the compound `CC(C)(C)c1ccc(C(=O)Nc2ccc(C(=O)NCc3cccnc3)cc2)cc1`, the half-maximal activity concentration (AC50) is under 0.195 µM.

On to `Oc1ccc(N=Nc2nccs2)c(O)c1`, for which the AC50 is 6.64 µM. For the compound `O=C(NC1=C(Nc2ccc(Cl)cc2)C(=O)c2ccccc2C1=O)c1ccccc1`, the AC50 is 21.8 µM. As for `CCCCCCCCNC(C)C(O)c1ccc(SC(C)C)cc1` (stereo not given), the AC50 was 10.5 µM. With `Cc1nn(-c2nc3ccccc3[nH]2)c(=O)c2ccccc12`, the half-maximal activity concentration (AC50) was 1.31 µM.

For `O=C1/C(=C/c2ccc(N3CCOCC3)o2)SC(=Nc2ccccc2)N1CCc1c[nH]c2ccccc12`, the AC50 was > 26 µM (inactive). The result for `Oc1ccc(Nc2nc(N3CCCC3)c3ccccc3n2)cc1` reads 18.9 µM; that for `O=C(NNC(=O)c1cccnc1SCc1cccc([N+](=O)[O-])c1)c1ccc(F)cc1`, 15.8 µM. As for `Cc1ccc(Cl)cc1NC1=C/C(=N\S(=O)(=O)c2cccs2)c2ccccc2C1=O`, the figure is 4.61 µM. For `Oc1ccc(Br)cc1-c1cc(-c2ccc(Cl)cc2)n[nH]1`, the AC50 was 11.1 µM. In the case of `Cc1[nH]n(-c2ccccc2)c(=O)c1/C=N\NC(=O)C1COc2ccccc2O1` (stereo not given), the AC50 is 14 µM. Turning to `COCc1ccc(O)c2ncccc12`, the AC50 is 15.9 µM. With `O=C(N/N=C/c1c(O)ccc2ccccc12)c1[nH]ncc1Br`, the AC50 is 2.16 µM. For `COc1ccc(C2=NNC(=Nc3cc(S(=O)(=O)N(C)C)ccc3C)SC2)c(OC)c1`, the AC50 was 3.06 µM. On to `CCOC(=O)N1CCN(C(=O)CSCC(=O)Nc2nc(-c3ccc(-c4ccccc4)cc3)cs2)CC1`, for which the half-maximal activity concentration (AC50) was 4.49 µM. Regarding `O=C(COc1ccccc1-c1ccccc1)N/N=C/c1ccc2ccccc2c1`, the AC50 is 8.67 µM.

On to `N#CCSc1nc2ccccc2c2nc3ccccc3n12`, for which the AC50 was 10.3 µM. Consider `O=C(NCCOCCOCCNC(=O)c1cccnc1)c1cccnc1`, for which the AC50 was 3.83 µM. `CNC(=O)c1cc(Oc2ccc(NC(=O)Nc3ccc(Cl)c(C(F)(F)F)c3)cc2)ccn1`: the AC50 is 7.39 µM. The result for `Cc1cc(C)c(CN2CCN(C(=O)Cn3cnc4c(OCc5ccccc5)ncnc43)CC2)c(C)c1` reads 6.91 µM. Turning to `COc1cc(C(=O)N/N=C(\C)c2ccccn2)cc(OC)c1OC`, the AC50 was 10.6 µM. In the case of `CCC(CO)[n+]1c(C)cc(/C=C2\Sc3ccccc3N2Cc2ccccc2)cc1C` (stereo not given), the AC50 is 0.765 µM. The result for `COc1ccc(-c2c[n+](CC(=O)OC3CC(C)CCC3C(C)C)c3n2CCC3)cc1` (stereo not given) reads 1.87 µM; that for `Cc1cc([N+](=O)[O-])c2ccccc2[n+]1[O-]`, 0.454 µM. `Cn1nc(-c2ccc(Cl)cc2)nc2c(=O)n(C)c(=O)nc1-2`: the AC50 is 0.508 µM. As to `CCS(=O)(=O)c1ncc(Cl)c(C(=O)Nc2ccc(S(=O)(=O)N(C)c3ccccc3)cc2)n1`, the AC50 is 6.63 µM. Turning to `CC(C)C(=O)NC(c1ccccc1)c1cc([N+](=O)[O-])c2cccnc2c1O` (stereo not given), the AC50 was 10.6 µM.

As for `Cc1ccc(S(=O)(=O)NCc2ccncc2)c(C)c1C`, the AC50 was 3.83 µM. As for `CCOC(=O)c1cccc(-[n+]2c(-c3ccccc3)cc(-c3ccccc3)cc2-c2ccccc2)c1`, the figure is 3.59 µM. As to `CN(C)c1ccc(-c2cc(O)c3ncccc3c2)cc1`, the AC50 was 26.9 µM. Regarding `CCOC(=O)[C@@H]1[C@H]2COc3cc(OC)ccc3[C@H]2N2C(=O)N(c3ccc(C(F)(F)F)cc3)C(=O)[C@]12C`, the AC50 is 15 µM. For `COc1ccc(CCNc2c(C)c(C)nc3ncnn23)cc1`, the AC50 was 3.68 µM. As for `CCN(CC)CCn1c2ccccc2c2cnc(N)c(C#N)c21`, the figure is 14.3 µM; as for `COC(=O)c1cc(O)cc(OC)c1Oc1cc(C)cc(O)c1C(=O)O`, 5.37 µM; as for `C/C(=N\NC(=O)c1ccc(F)cc1)c1ccccn1`, 2.35 µM. The result for `CCCCOc1cc(NCc2ccccc2)c2ncn(C(C)C)c2c1` reads 7.26 µM; that for `CCN(CC)CCNc1ncnc2c1sc1nc(N3CCOCC3)c3c(c12)CC(C)(C)SC3`, 14.2 µM; that for `O=C(OCn1ncc(Cl)c(Cl)c1=O)c1ccccc1Cl`, 7.84 µM. Regarding `C[n+]1c2n(c3ccccc31)N=C(c1cc(C(C)(C)C)c(O)c(C(C)(C)C)c1)CS2`, the AC50 is 0.39 µM. Take `c1ccc(-c2cccc(-c3ccccn3)n2)nc1`: the AC50 is 1.24 µM. Turning to `Cc1nn(S(=O)(=O)c2ccc(Cl)cc2)c(C)c1Sc1ccc([N+](=O)[O-])cc1`, the AC50 is 7.69 µM. The result for `Cc1ccc(O)c(NC(=S)NC(=O)c2ccc(-c3ccc(Cl)cc3)o2)c1` reads 23.9 µM; that for `O=C(CNc1cccc2ccccc12)N/N=C/c1ccc([N+](=O)[O-])o1`, 11.5 µM; that for `CSc1nc(-c2ccccc2)nc(C(Cl)Cl)n1`, 3.88 µM. Take `OC(CNCCC1C=Nc2ccccc21)Cn1c2ccc(Cl)cc2c2cc(Cl)ccc21` (stereo not given): the concentration at half-maximal activity (AC50) is 7.93 µM. `COc1ccc(C2CC(c3ccc4ccccc4c3OC(C)=O)=NN2C(C)=O)cc1` (stereo not given): the AC50 was 8.47 µM. Regarding `O=C(Nc1ccc(Cl)cc1)c1nc[nH]c1C(=O)NCCN(CCNC(=O)c1[nH]cnc1C(=O)Nc1ccc(Cl)cc1)CCNC(=O)c1[nH]cnc1C(=O)Nc1ccc(Cl)cc1`, the AC50 is 8.08 µM. With `CC1=[N+](C)c2ccc3ccccc3c2C1(C)C`, the AC50 is 14.6 µM.

As for `COc1ccc(-c2csc(NC(=O)c3ccccc3NS(=O)(=O)c3ccc(F)c(F)c3)n2)cc1`, the AC50 was 3.52 µM. With `C/C(=N\NC(=O)c1ccc(Cl)cc1)c1ccccn1`, the AC50 is 1.62 µM. As to `N#CC1=C(N)Oc2c(ccc3cccnc23)C1c1ccccc1` (stereo not given), the concentration at half-maximal activity (AC50) is 19.3 µM.

On to `CCN1CCN(Cc2ccc(NC(=O)c3ccc(C)c(NC(=O)c4c[nH]c5cc(C(F)(F)F)ccc5c4=O)c3)cc2C(F)(F)F)CC1`, for which the AC50 is 7.07 µM. The result for `CCCCCCOc1ccc(CN2CCN(C)CC2)cc1` reads 11 µM; that for `Cc1c2ccncc2c(C)c2c1[nH]c1ccccc12`, 5.21 µM; that for `Cc1ccc(S(=O)(=O)/N=C2\C=C(Nc3ccc(O)cc3)C(=O)c3ccccc32)cc1`, 1.91 µM.

For `CCCCNc1c(-c2ccc(OC)c(SC(C)CC)c2)nc2ccc(C)cn12` (stereo not given), the concentration at half-maximal activity (AC50) was 4.44 µM. As to `Cn1c2c(c(=O)n(C)c1=O)C(C(F)(F)F)(C(F)(F)F)N=C(c1ccc(Cl)cc1)N2`, the AC50 was 0.56 µM. As for `OCCCNc1c2ccccc2nc2ccccc12`, the figure is 9.09 µM; as for `Cc1ccc(S(=O)(=O)Nc2ccc(O)c3ccccc23)c(C)c1`, 13.7 µM; as for `COc1cc(OC)c(NC2=CC(=O)C(=O)c3ccccc32)cc1Cl`, 8.07 µM. As to `CC(C)c1nc(-c2ccccc2)c(-c2ccccc2)[nH]1`, the AC50 is 6.81 µM. For `FC(F)(F)c1ccc(CN2C[C@@H]3C(c4ccc(C(F)(F)F)cc4)C4(c5cccnc5)CC3(C4)[C@H]2c2ccccc2)cc1` (stereo not given in full), the AC50 is 5.15 µM. As to `COc1ccccc1NC1=C(N2CCCCC2)C(=O)c2ccccc2C1=O`, the AC50 was 2.21 µM.

In the case of `CCOC(=O)N1CCN(S(=O)(=O)c2ccc(C(=O)NNc3nc4c(C)cc(C)cc4s3)cc2)CC1`, the AC50 was 11.3 µM. `CN(C)c1cc[n+](CC(=O)c2ccc(-c3ccccc3)cc2)cc1`: the half-maximal activity concentration (AC50) was 1.22 µM. Regarding `O=C(c1cnc(N2CCN(c3ccccn3)CC2)c2ccccc12)N1CCN(c2cccc(Cl)c2)CC1`, the AC50 was 7.59 µM. As to `CC(CNC(=O)c1ccc(OC2CCN(Cc3ccccn3)CC2)cc1)Oc1cccnc1` (stereo not given), the AC50 was 7.36 µM. For the compound `O=C(N/N=C/c1ccc(O)cc1O)c1ccc(CN2C(=O)c3cccc4cccc2c34)cc1`, the AC50 is 3.89 µM.
